Test results: patent US20170362283A1, “NISIN-BASED COMPOUNDS AND USE THEREOF IN THE TREATMENT OF BACTERIAL INFECTIONS” (UNIVERSITEIT UTRECHT HOLDING B.V., priority 2015, published 2017)
In brackets after ≈: the same amount, converted by molar mass.

What was measured:
Settings in all cases: duplicate experiments
MRSA USA300 = format: cell-based, Staphylococcus aureus
Experimental: (§1) Determining the MIC value is a standard technique well known to the skilled person, in particular the MIC value can be measured using method M07-A9 (CLSI standard, January 2012, Vol. 32, No. 2, “Methods for Dilution Antimicrobial Susceptibility Tests for Bacteria That Grow Aerobically”).
(§2) Different microorganisms (from glycerol stock) were plated out on blood agar and incubated at 37° C. for 24 hours. A colony was selected and 2×5 mL of TSB was inoculated. The samples and a sterile control were cultured for 16-20 hours at 37° C. Comparative compound B is nisin acting as a control. Comparative compound C is vancomycin, also acting as a control. Comparative compounds A, D and E are also control compounds not part of the present invention.
(§3) The overnight cultures were diluted to 0.5×10^6 CFU in TSB. 50 μL of the bacterial solution was added to each well and the plates were sealed with an adhesive membrane and incubated at 37° C. for 16 hours. The next day, the plates were visually inspected for bacterial growth.

VRE 155 = format: cell-based
Experimental: as §1, §2, §3

B. subtilis = tested on: B. subtilis
Experimental: as §1
(§4) Different microorganisms (from glycerol stock) were plated out on blood agar and incubated at 37° C. for 24 hours. A colony was selected and 2×5 mL of TSB was inoculated. The samples and a sterile control were cultured for 16-20 hours at 37° C. Comparative compound B is nisin acting as a control. […] Comparative compounds A, D and E are also control compounds not part of the present invention.
as §3

E. coli = tested on: E. coli
Experimental: as §1, §4, §3

S. aureus = tested on: S. aureus
Experimental: as §1, §4, §3

SMILES	MIC values MRSA USA300 (MRSA USA300) [µg/mL]	MIC values VRE 155 (VRE 155) [µg/mL]	MIC values B. subtilis (B. subtilis) [µg/mL]	MIC values E. coli (E. coli) [µg/mL]	MIC values S. aureus (S. aureus) [µg/mL]
C=C1NC(=O)[C@H]([C@@H](C)CC)NC(=O)[C@H](NC(=O)C(=CC)NC(=O)[C@@H](NC(=O)CCN)[C@@H](C)CC)CSC[C@@H](C(=O)N[C@H]2C(=O)N3CCC[C@H]3C(=O)NCC(=O)N[C@H](C(=O)N[C@@H](CCCCNC(=O)CCN)C(=O)NCCCCCCCCCCCC)CS[C@H]2C)NC(=O)[C@H](CC(C)C)NC1=O [(22)]	16 (≈ 11 µM)	8 (≈ 5.48 µM)			
C=C1NC(=O)[C@H]([C@@H](C)CC)NC(=O)[C@H](NC(=O)C(=CC)NC(=O)[C@@H](N)[C@@H](C)CC)CSC[C@@H](C(=O)N[C@H]2C(=O)N3CCC[C@H]3C(=O)NCC(=O)N[C@H](C(=O)N[C@@H](CCCCN)C(=O)NCc3ccc(-c4ccc(Cl)cc4)cc3)CS[C@H]2C)NC(=O)[C@H](CC(C)C)NC1=O [(13)]	8 (≈ 5.93 µM)	4 (≈ 2.96 µM)	2 to 4		
C=C1NC(=O)[C@H]([C@@H](C)CC)NC(=O)[C@H](NC(=O)C(=CC)NC(=O)[C@@H](N)[C@@H](C)CC)CSC[C@@H](C(=O)N[C@H]2C(=O)N3CCC[C@H]3C(=O)NCC(=O)N[C@H](C(=O)N[C@@H](CCCCN)C(=O)NCCCCCCCC)CS[C@H]2C)NC(=O)[C@H](CC(C)C)NC1=O [(4)]	64 (≈ 50.7 µM)	16 (≈ 12.7 µM)			
C=C1NC(=O)[C@H]([C@@H](C)CC)NC(=O)[C@H](NC(=O)C(=CC)NC(=O)[C@@H](N)[C@@H](C)CC)CSC[C@@H](C(=O)N[C@H]2C(=O)N3CCC[C@H]3C(=O)NCC(=O)N[C@H](C(=O)N[C@@H](CCCCNC(=O)CCN)C(=O)NCCCCCCCCCCCC)CS[C@H]2C)NC(=O)[C@H](CC(C)C)NC1=O [(21)]	8 (≈ 5.76 µM)	4 (≈ 2.88 µM)			
C=C1NC(=O)[C@H]([C@@H](C)CC)NC(=O)[C@H](NC(=O)C(=CC)NC(=O)[C@@H](N)[C@@H](C)CC)CSC[C@@H](C(=O)N[C@H]2C(=O)N3CCC[C@H]3C(=O)NCC(=O)N[C@H](C(=O)N[C@@H](CCCCN)C(=O)NC)CS[C@H]2C)NC(=O)[C@H](CC(C)C)NC1=O [D, reference compound]			>128	>128	>128
C=C1NC(=O)[C@H]([C@@H](C)CC)NC(=O)[C@H](NC(=O)C(=CC)NC(=O)[C@@H](N)[C@@H](C)CC)CSC[C@@H](C(=O)N[C@H]2C(=O)N3CCC[C@H]3C(=O)NCC(=O)N[C@H](C(=O)N[C@@H](CCCCNC(=O)CCCCCCCC)C(=O)NC)CS[C@H]2C)NC(=O)[C@H](CC(C)C)NC1=O [(19)]	32 (≈ 24.5 µM)	8 (≈ 6.14 µM)			
C=C1NC(=O)[C@H]([C@@H](C)CC)NC(=O)[C@H](NC(=O)C(=CC)NC(=O)[C@@H](N)[C@@H](C)CC)CSC[C@@H](C(=O)N[C@H]2C(=O)N3CCC[C@H]3C(=O)NCC(=O)N[C@H](C(=O)N[C@@H](CCCCN)C(=O)N[C@@H](Cc3c[nH]cn3)C(=O)NCCCCCCCCCC)CS[C@H]2C)NC(=O)[C@H](CC(C)C)NC1=O [(17)]	8 (≈ 5.61 µM)	4 (≈ 2.8 µM)			
C=C1NC(=O)[C@H]([C@@H](C)CC)NC(=O)[C@H](NC(=O)C(=CC)NC(=O)[C@@H](N)[C@@H](C)CC)CSC[C@@H](C(=O)N[C@H]2C(=O)N3CCC[C@H]3C(=O)NCC(=O)N[C@H](C(=O)N[C@@H](CCCCN)C(=O)NCCCN=[N+]=[N-])CS[C@H]2C)NC(=O)[C@H](CC(C)C)NC1=O [E, Nisin [1-12]-azide, reference compound]			>128	>128	>128
